These are literature values, as cited in patent EP0438873A1, “Inhibitor of ribonucleotide reductase of herpes viruses” (MERCK & CO. INC., priority 1989, dated 1991).

The data set concerns ribonucleotide reductase enzyme of herpes simplex virus. The conditions noted are these: from Dutia et al., Cohen et al., U.S. Patent No. 4,795,740.

Where no end group is shown, it is not given here.

Regarding “Tyr Ala Gly Ala Val Val Asn Asp Leu (YAGAVVNDL; printed: Tyr Ala Gly Ala Val Val Asn Asp Leu) [the nonapeptide disclosed by Dutia et al. and Cohen et al]”, the “inhibited in vitro the activity of this enzyme (HSV ribonucleotide reductase)” value is on record as “inhibited”.
As to “YGAVVNDL [8-desalanine homolog of the nonapeptide, disclosed by Dutia et al]”, the “inhibited in vitro the activity of this enzyme (HSV ribonucleotide reductase)” value is on record as “inhibited”.
